The nature of test [1]: cells. In kind it is functional, cell-based.
For test [2], the target named is T1, Induced myeloid leukemia cell differentiation protein Mcl-1 (Homo sapiens, UniProt Q07820). Put plainly: MCL1-BIM BH3 interaction inhibitors, dose response, biochemical, fluorescence polarization, BIM-BH3 peptide, 1536-well (AID 2217). For orientation: Fluorescence polarisation rises when a labelled molecule tumbles more slowly, as on binding a larger partner.

Test [3] is described as follows: cells. The class given is functional, cell-based. The source holds these as a separate data set.
Another test concerns the target Bcl-2-like protein 1 (Homo sapiens, UniProt Q07817). Put plainly: BCL-XL inhibitors, dose response, selectivity assay for MCL1 inhibitor project, biochemical, fluorescence polarization, 1536-well (AID 2218).
The target in test [4] is T1, Induced myeloid leukemia cell differentiation protein Mcl-1. The class given is functional.
Test [5] deals with Intestinal-type alkaline phosphatase (Homo sapiens, UniProt P09923). Put plainly: activation of human intestinal alkaline phosphatase – biochemical, dose response (AID 488873). The class given is functional.
Chain of Intestinal-type alkaline phosphatase (Homo sapiens, UniProt P09923) (P09923 whole entry): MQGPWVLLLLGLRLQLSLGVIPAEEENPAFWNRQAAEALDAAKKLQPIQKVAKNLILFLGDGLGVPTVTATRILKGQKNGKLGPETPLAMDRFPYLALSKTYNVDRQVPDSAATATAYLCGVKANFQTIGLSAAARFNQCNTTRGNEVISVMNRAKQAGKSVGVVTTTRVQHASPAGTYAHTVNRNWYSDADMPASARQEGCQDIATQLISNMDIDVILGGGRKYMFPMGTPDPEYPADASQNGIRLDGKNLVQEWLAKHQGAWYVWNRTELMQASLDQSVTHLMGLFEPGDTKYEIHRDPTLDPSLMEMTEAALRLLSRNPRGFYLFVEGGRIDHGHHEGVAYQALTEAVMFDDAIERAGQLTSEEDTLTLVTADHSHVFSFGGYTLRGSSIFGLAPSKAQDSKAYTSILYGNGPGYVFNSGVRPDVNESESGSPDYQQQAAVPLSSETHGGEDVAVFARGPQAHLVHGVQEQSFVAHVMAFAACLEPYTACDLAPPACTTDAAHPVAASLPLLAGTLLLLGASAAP
For test [6], the target named is Intestinal-type alkaline phosphatase (Mus musculus, UniProt P24822). Put plainly: PubChem AID 488785. The class given is functional.
Chain of Intestinal-type alkaline phosphatase (Mus musculus, UniProt P24822) (P24822 whole entry): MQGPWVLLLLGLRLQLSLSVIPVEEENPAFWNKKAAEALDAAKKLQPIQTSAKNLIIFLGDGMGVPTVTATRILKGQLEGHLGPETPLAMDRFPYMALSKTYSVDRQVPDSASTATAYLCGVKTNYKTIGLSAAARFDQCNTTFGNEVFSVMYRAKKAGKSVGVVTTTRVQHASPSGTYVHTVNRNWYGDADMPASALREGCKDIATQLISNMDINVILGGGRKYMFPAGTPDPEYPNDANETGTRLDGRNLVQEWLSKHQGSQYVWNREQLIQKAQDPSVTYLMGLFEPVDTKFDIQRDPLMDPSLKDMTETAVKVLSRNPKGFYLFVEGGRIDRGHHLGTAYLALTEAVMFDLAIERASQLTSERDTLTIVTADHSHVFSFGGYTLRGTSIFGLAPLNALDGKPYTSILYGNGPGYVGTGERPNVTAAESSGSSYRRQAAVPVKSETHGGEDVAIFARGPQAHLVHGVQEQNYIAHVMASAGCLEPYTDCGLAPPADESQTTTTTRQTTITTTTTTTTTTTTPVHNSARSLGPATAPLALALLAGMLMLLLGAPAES
The target of test [7] is T2, Alkaline phosphatase, tissue-nonspecific isozyme (Homo sapiens, UniProt P05186).
T2 sequence (P05186 whole entry): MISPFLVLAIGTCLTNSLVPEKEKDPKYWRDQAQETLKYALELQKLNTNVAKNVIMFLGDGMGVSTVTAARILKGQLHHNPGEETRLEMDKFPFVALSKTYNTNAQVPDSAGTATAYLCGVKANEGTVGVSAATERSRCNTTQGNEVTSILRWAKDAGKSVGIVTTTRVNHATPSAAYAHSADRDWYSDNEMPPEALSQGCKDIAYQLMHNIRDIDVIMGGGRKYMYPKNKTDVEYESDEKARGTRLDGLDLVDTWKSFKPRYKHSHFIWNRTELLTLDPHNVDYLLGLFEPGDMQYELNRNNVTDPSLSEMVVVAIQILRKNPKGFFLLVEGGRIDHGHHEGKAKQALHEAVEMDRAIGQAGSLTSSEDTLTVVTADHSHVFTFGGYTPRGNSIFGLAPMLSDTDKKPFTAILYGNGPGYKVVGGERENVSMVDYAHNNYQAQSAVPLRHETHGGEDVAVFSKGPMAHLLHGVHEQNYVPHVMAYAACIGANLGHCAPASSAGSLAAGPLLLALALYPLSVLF
Put plainly: TNAP enzyme inhibition by screening hits, dose response, selectivity assay for mouse IAP inhibitor project, biochemical, human TNAP, uHTS hits (AID 488906). The class given is functional.

For test [8], the target named is T3, Carboxy-terminal domain RNA polymerase II polypeptide A small phosphatase 1 (Homo sapiens, UniProt Q9GZU7).
T3 sequence (Q9GZU7 whole entry): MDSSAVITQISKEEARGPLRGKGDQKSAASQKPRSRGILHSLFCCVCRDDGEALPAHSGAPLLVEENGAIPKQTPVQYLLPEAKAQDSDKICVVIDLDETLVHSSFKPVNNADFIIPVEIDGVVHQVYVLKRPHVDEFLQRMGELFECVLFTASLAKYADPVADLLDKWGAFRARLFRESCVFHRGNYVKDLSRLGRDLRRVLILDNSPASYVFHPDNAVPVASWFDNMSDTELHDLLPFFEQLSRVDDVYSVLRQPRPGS
Put plainly: inhibitors of CTDSP1, concentration-response testing, biochemical assay, absorbance-based, actives from ultra-high-throughput screening (AID 540297). The class given is functional.

The source made the active and inactive calls.

T1 sequence (Q07820 whole entry): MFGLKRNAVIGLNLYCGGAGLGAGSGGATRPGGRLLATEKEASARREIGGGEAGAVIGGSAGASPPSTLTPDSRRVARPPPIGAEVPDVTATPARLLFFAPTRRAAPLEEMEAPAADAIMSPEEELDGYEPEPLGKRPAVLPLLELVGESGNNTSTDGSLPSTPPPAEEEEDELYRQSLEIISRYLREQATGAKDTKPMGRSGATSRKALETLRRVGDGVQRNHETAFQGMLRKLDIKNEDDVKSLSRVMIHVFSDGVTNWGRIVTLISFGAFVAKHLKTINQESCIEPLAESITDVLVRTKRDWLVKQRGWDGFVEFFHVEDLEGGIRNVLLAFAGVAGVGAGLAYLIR
Chain of Bcl-2-like protein 1 (Q07817 whole entry): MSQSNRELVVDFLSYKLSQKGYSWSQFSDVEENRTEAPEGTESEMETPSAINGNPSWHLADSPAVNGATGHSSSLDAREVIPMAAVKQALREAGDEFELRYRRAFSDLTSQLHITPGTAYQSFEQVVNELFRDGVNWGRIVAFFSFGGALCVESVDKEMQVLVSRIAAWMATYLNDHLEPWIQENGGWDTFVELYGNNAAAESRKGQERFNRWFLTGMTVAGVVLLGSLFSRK

Usually EC50 stands for the concentration that produces a half-maximal response. As a reminder, the IC50 is the midpoint of a concentration-inhibition curve. Turning to `O=[N+]([O-])c1cc(S(=O)(=O)c2ccc(O)c([N+](=O)[O-])c2)ccc1O`, the figures for the EC50 (in “cells [1]”; in “cells [3]”; in [5]) were > 350 µM (not active), > 350 µM (not active) and > 100 µM (inactive), respectively. In addition, the half-inhibitory concentration (IC50) in test [2] is 12.5 µM (not active); at Bcl-2-like protein 1, > 109 µM (not active); in test [4], 2.82 µM (active); in test [6] it was 5.39 µM (active); in test [7] it was > 100 µM (inactive); in test [8], 3.31 µM (active).

The values are drawn from ChEMBL document CHEMBL1201862, “PubChem BioAssay data set” (2004).
